Laboratory results reported in article PMC8047729, “Identification of a nanomolar affinity α-synuclein fibril imaging probe by ultra-high throughput in silico screening” (Chemical Science, 2020).
pKd: −log10 of the molar value. Entries after “also recorded” stand apart in the source; their conditions may differ.

Key:
[1] = molecular target: αS fibrils in mouse brain lysate (Homo sapiens, UniProt P37840); assay: Photo-crosslinking and click labeling in mouse brain lysate; format: binding; details: 50 μM CLX2, 50 μM αS fibrils, 10 mg/ml lysate
Description: Photo-crosslinking in Mouse Brain Lysate
Total Mouse Brain Protein Preparation. Mice were anesthetized using isoflurane gas in a closed chamber (AKORN, Lake Forest, IL, USA) followed by cervical dislocation. Brains were quickly dissected and snap-frozen in dry ice. Mouse brains were mechanically homogenized in five -fold excess (w/w) RIPA buffer (Thermo Fisher Scientific; Waltham, MA, USA ) using a ground glass tissue plunger. Homogenized sample was then subjected to probe sonication (Qsonica, Newtown, CT, USA) on ice using a microtip, at an amplitude of 50% at intervals of 10 s on 20 s off, for a total process-time (on-time) of 5 minutes. Crude lysate was then clarified by centrifugation at 10,000xg at 4 °C for 60 min. […] The lysate total protein concentration was then determined using the Bio-Rad detergent compatible (DC) protein assay […]
samples (50 µM final concentration), followed by “click -mix” (50 µM copper sulfate, 100 µM THPTA final concentration), sodium ascorbate (200 µM final concentration), and PBS to achieve a final volume of 200 µL. […] Samples were then analyzed via SDS-PAGE using a 4-12% Bis-Tris pre-cast gel (NuPAGE, Thermo Fisher Scientific). αS monomer labeled with BODIPY-FL maleimide (prepared as previously described13) was used as a control. […]

[2] = molecular target: T1, αS fibrils (Homo sapiens, UniProt P37840); assay: Photo-crosslinking assay with MALDI-MS of tryptic digest; format: binding; details: 100 μM crosslinker, 365 nm irradiation, trypsin digest MALDI-MS
Procedure: Photo-crosslinking assay. Aggregations of αS prepared as described above were transferred to a clear glass vial to assist in photo -crosslinking, and compounds ClX1, ClX2, or DMSO (as a vehicle control) were delivered to their respective vials (100 μM final concentrations). The resulting fibril-crosslinker or fibril-DMSO mixture was incubated for 1 h at 37 °C, and thereafter irradiated with long wave UV from a TLC lamp (365 nm) for 1 h. The irradiated fibrils were then boiled in SDS (25 mM final concentration), and subjected to CHCl3/MeOH precipitation to remove excess detergent and buffer as previously described.2 The translucent brown protein pellet was then resuspended in 40 μL of sterilized, Milli-Q water. At this point, the whole protein sample was subjected to MALDI-MS analuysis by spotting 1 μL of sample in 1μL of sinapic acid matrix, prepared as a saturated solution in a 50:50 mixture of ACN:H2O with 0.1% TFA. The remaining sample was digested using trypsin (Promega Corporation) at 37 °C overnight (50 mM NH4CO3, 1 mM CaCl2, 1:50-1:100 protein:trypsin ratio). The resulting tryptic peptide mixture was diluted 1:10 in sterile water with 0.1% TFA, and analyzed via MALDI-MS by spotting 1 μL of sample in 1 μL of CHCA matrix or DHB matrix, prepared as saturated solutions in a 50:50 mixture of ACN:H2O with 0.1% TFA. […]

[3] = molecular target: T1, αS fibrils
[4] = test system: A53T and control mouse brain sections; format: binding
[5] = molecular target: Aβ42 fibrils (Homo sapiens, UniProt P05067)
Sequence of Aβ42 fibrils (P05067 672-713 limits assumed): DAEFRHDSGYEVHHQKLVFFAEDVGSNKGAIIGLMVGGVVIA

Crosslinked site / peptide fragment on αS fibrils [2] | SMILES | Binding by crosslinking and fluorescent azide labeling in mouse brain lysate [1] | pKd [3] | Levels of non-specific binding ([3]; saturation binding experiments) | Autoradiography signal in whole brain sections [4] | pKd [5]
residues 22-34; also recorded: Site 2 | C#CCCC1(CCOc2ccc(OCC(=O)Nc3cc(-c4ccc(I)cc4)no3)cc2)N=N1 [ClX2] | binding to αS fibrils, but also to many other proteins in mouse brain lysate |  |  |  | 
 | Cc1ccc(OCC(=O)Nc2cc(-c3ccc([125I])cc3)no2)cc1C [[^125I]61] |  | 8.97 | relatively high | increased signal in A53T mouse brain in αS-rich regions compared with the control | 8.34
